The text below walks through data of patent publication US6942979B1, “Method for screening substances capable of modulating the activity of a TRAAK potassium channel” (Centre National de la Recherche Scientifique-CNRS, priority 1998, dated 2005).

Holding throughout (type): cell-based
Assay [1] deals with T1, TRAAK channel (Mus musculus, UniProt O88454).
T1 construct: an open reading phase of 1197 nucleotides coding for a polypeptide of 398 residues; expressed in transfected cells; host or cells: COS cells (transient)
T1 sequence (O88454 1-398): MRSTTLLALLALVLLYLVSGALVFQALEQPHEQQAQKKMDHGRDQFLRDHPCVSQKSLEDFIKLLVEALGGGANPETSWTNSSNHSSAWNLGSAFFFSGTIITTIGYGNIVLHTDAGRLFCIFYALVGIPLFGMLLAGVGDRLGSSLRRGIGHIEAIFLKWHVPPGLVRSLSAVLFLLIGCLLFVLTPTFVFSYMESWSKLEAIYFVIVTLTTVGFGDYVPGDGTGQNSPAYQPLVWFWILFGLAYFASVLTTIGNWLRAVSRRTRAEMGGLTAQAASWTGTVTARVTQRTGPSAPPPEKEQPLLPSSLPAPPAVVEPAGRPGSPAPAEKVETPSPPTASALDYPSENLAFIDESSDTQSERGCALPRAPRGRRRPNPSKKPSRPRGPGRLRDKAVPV
The experiment in a line: TRAAK currents in Xenopus oocytes injected with TRAAK cRNA, imposed voltage technique. The protocol: In (a): the oocytes were maintained at a potential of −80 mV then the currents were recorded following potential jumps from −150 to +50 mV by increments of 20 mV. The recordings were performed in an external medium containing a K^+ concentration of 2 mM or 74 mM. In (b): current-potential relation was according to the same experimental set-up as in (a). In (c): potential reversal (Erev) of the TRAAK currents were a function of the external K^+ concentration. In (d): currents recorded on COS cells transfected by TRAAK according to the same protocol as in (a). In (e): current-potential relation was according to the same experimental set-up as in (d).
(§1) For the functional study, the coding sequence of TRAAK was inserted in the vector pEXO and a complementary RNA (cRNA) was synthesized from this construction and injected in Xenopus oocytes. For expression in the COS cells, the TRAAK sequence was subcloned in an expression vector under the control of a eukaryote promoter and transfected into the cells. An absent non-inactivating current from the oocytes and the control cells was measured by the imposed voltage technique as represented in FIG. 4. The activation was instantaneous and could not be resolved because it was masked by the capacitive discharge of the current recorded at the beginning of the potential jump. The current-potential relation rectified in the outgoing direction when the external K^+ concentration was equal to 2 mM. Incoming currents were observed when the external K^+ concentration was increased. At all concentrations, the current-potential curves followed the Goldman-Hodgkin-Katz relation. […] The TRAAK channel is selective for potassium. Reversal of the current potential follows the equilibrium potential of K^+ and changing the concentration of K^+ by 10 leads to a change in the potential inversion value conforming to the value predicted by Nernst's equation (48.7±0.7 mV times 10, n=4).

The target of assay [2] is T1, TRAAK channel. Description: TRAAK currents in transfected COS cells, imposed voltage technique. To be noted: concentration of 10 μM.
The target of assay [3] is T1, TRAAK channel. The assay is described as above. Also on record: increase in the current induced by AA: dose or concentration left out as unconfirmed. The protocol:
as §1, with “The maintenance potential was -80 mV. In FIG. 9b: dose-effect relation ofthe activation” for “For the functional study, the coding sequence”, “by AA is shown. In FIG. 9c: current-potential relations obtained as in FIG. 9a” for “was inserted”, “outside-out configuration are shown. […] In FIG. 9d: a histogram represents the coefficient of augmentation of the currents obtained after application of various fatty acids (10 μM). […] The coefficient of augmentation is indicated in each case. […] The current-potential relations were obtained as in FIG. 9a above” for “vector pEXO”, “after application ofriluzole (100 μM) on the transfected COS cells. […]” for “a complementary RNA (cRNA) was synthesized from this construction and injected in Xenopus oocytes.”

Assay [4] has as its target T2, TREK-1 channel (Mus musculus, UniProt P97438, R381M/T78A).
T2 construct: expressed in transfected cells; host or cells: COS cells
T2 sequence (P97438 with tags, fused parts or gaps isoform P97438-2 T63A/R366M): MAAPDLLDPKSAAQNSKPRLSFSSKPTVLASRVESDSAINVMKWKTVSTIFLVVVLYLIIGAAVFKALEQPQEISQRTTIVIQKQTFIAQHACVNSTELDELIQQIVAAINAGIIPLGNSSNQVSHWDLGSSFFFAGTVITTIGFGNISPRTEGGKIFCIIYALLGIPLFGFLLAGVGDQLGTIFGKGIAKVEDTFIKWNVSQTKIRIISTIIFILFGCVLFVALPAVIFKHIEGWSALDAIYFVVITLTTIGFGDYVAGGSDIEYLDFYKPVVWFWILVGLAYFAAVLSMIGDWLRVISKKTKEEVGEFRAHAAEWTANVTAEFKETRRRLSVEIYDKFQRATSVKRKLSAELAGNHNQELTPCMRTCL
The experiment in a line: TREK-1 currents in transfected COS cells, patch recording. The protocol: (§2) In FIG. 8a: the activity of TREK-1 was recorded in the attached cell configuration. The patch was stimulated by a potential ramp lasting 800 msec every 5 seconds. The currents were measured at 80 mV. The applications of arachidonic acid (AA, 10 μM) are indicated by the horizontal bars. During the experiment, the patch was stimulated by tensions of 50 mmHg (indicated by the arrows). At 9 minutes, the patch was excised in the inside-out configuration. In FIG. 8b: current-potential relations corresponding to the experiment illustrated in FIG. 8a is shown. In FIG. 8c: activity of TREK-1 in the attached cell configuration with 10 μM AA in the pipette can be seen. The potential ramp lasted 800 msec and the currents were measured at 80 mV. In FIG. 8d: single-channel current-potential relations at the moment at which the pipette was placed on the membrane or after 20 minutes and 1 minute after the patch was excised in the inside-out configuration. […] The current was measured at 80 mV. In FIG. 8f: AA had no effect on the TREK-1 current measured in the intact cell when it was in the pipette. The current was measured 30 minutes after the patch was broken (control tracing) by a potential ramp of 800 msec. The current was then measured after an application of AA of 1 minute in the external medium (AA tracing).
(§3) FIGS. 10a and b are graphs showing the effect of riluzole on the TREK-1 and TRAAK […] currents. The current-potential relations were obtained as in FIG. 9a above and after application ofriluzole (100 μM) on the transfected COS cells.

In the next assay the test system is control cells (CD8). Description: Application of AA on control cells (CD8).
The next assay has as its target T3, TWIK-1 channel (Homo sapiens, UniProt O00180).
T3 construct: expressed in transfected cells; host or cells: COS cells (transient)
T3 sequence (O00180 1-336): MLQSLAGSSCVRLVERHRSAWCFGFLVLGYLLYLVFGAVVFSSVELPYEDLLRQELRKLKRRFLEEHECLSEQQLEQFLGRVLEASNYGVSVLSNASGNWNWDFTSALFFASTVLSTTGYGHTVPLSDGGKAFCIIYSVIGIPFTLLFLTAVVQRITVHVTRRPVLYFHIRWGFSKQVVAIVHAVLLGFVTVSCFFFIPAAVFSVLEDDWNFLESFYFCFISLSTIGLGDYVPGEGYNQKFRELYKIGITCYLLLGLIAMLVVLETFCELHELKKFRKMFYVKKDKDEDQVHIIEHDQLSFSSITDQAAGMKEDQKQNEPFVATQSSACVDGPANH
The experiment in a line: TWIK-1 currents in transfected COS cells before and after AA. The conditions noted are these: intact cell configuration.

Another assay concerns the target T4, TASK channel (Homo sapiens, UniProt O14649).
T4 construct: expressed in transfected cells; host or cells: COS cells (transient)
The experiment in a line: TASK currents in transfected COS cells before and after AA. The conditions noted are these: intact cell configuration.

The target of assay [5] is T5, TREK-1 channel (Mus musculus, UniProt P97438).
T5 construct: expressed in transfected cells; host or cells: COS cells
T5 sequence (P97438 with tags, fused parts or gaps isoform P97438-2 T63A/R366M): T2 sequence (P97438 with tags, fused parts or gaps isoform P97438-2 T63A/R366M)
The experiment in a line: TREK-1 currents in transfected COS cells, patch recording. The conditions noted are these: AA 10 μM applied in the external medium, transfected COS cells. On the procedure: as §2, §3

The mark [6] stands for this setting: riluzole 100 μM, transfected COS cells.

T4 sequence (O14649 whole entry): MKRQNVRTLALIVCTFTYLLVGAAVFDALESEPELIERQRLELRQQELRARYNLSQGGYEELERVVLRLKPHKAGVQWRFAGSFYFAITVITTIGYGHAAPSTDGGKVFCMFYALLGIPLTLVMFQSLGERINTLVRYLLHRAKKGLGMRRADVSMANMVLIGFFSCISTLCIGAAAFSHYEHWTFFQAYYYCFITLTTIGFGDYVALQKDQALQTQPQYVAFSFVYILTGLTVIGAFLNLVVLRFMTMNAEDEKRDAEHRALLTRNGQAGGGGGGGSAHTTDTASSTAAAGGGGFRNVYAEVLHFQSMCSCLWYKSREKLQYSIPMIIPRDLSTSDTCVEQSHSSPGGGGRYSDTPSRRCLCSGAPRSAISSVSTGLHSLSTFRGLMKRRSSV

Consider `Nc1ccncc1` [4-aminopyridine], for which the “sensitivity of TRAAK to potassium channel blocking agents” value (“sensitivity of TRAAK” for short) on TRAAK channel [1] (1 mM) was “insensitive”.
Take `CCCCC/C=C\C/C=C\C/C=C\C/C=C\CCCC(=O)OC` [AA-ME]: the “activation of the TRAAK channel by fatty acids and derivatives” value (shortened to “activation … by fatty acids and derivatives”) on TRAAK channel [2] was “inactive”.
The same measure, in the same setting: the entry for `CCCCCCCC/C=C\CCCCCCCC(=O)O` [oleic, oleic acid] is “activation”.
Take `Nc1nc2ccc(OC(F)(F)F)cc2s1` [Riluzole, riluzole]: at TRAAK channel [3] (setting [6]), the “effect of riluzole on the TRAAK channel” value is given as “opener”. Moreover, the “effect of riluzole on the TREK-1 channel” value on TREK-1 channel [4] (setting [6]) is “opener”.
For `CCCCC/C=C\C/C=C\C/C=C\C/C=C\CCCCO` [AA-OH], the “activation … by fatty acids and derivatives” value at TRAAK channel [2] was “inactive”.
Same read-out and setting: the entry for `CC/C=C\C/C=C\C/C=C\C/C=C\C/C=C\C/C=C\CCC(=O)O` [docosohexaenoic, docosohexaenoic acid] is “activation”.
As to `C=C[C@H]1C[N@@]2CC[C@H]1C[C@H]2[C@H](O)c1ccnc2ccc(OC)cc12` [quinine], the “sensitivity of TRAAK” value at TRAAK channel [1] (100 mM) is on record as “insensitive”.
On to `CC[N+](CC)(CC)CC` [tetraethylammonium], for which the “sensitivity of TRAAK” value at TRAAK channel [1] (1 mM) is “insensitive”.
Turning to `CCCCC/C=C\C/C=C\C/C=C\C/C=C\CCCC(=O)O` [AA, arachidonic acid], in the assay on control cells (CD8), the “effect of AA on control cells” value is reported as “no effect”. Moreover, at TWIK-1 channel, the “effect of activation by AA on TWIK-1” value was “No effects of the same type”. Also, on TRAAK channel [3] (AA 10 μM (FIG. 9a), transfected COS cells, reversible, concentration dependent), the “activation of the TRAAK channel by AA” value is reported as “activated”. The “increase in the current induced by AA” value on TRAAK channel [3] (AA perfusion with mixture of inhibitors of AA metabolism, at +50 mV, n=3) was 6.6±0.5 times. In addition, on TASK channel, the “effect of activation by AA on TASK” value is reported as “No effects of the same type”. The “activation of TREK-1 by AA” value on TREK-1 channel [5] is “activated”. Further, on TREK-1 channel [4] (AA in the pipette, intact cell, dialyzed up to 30 minutes), the “activation of TREK-1 by internal AA” value is “did not activate”.
As for `CCCCCCCCCCCCCCCCCC(=O)O` [stearic, stearic acid], the “activation … by fatty acids and derivatives” value at TRAAK channel [2] was “no effect”.
Still for that read-out and setting: the value for `CCCCC/C=C\C/C=C\CCCCCCCC(=O)O` [linoleic, linoleic acid] was “activation”; that for `CCC=CCC=CCC=CCC=CCC=CCC=CCCC(=O)OC` [DOHA-ME] was “inactive”.
Same read-out and setting: the value for `CCCCCCCCCCCCCCCCCCCC(=O)O` [arachidic, arachidic acid] was “no effect”; that for `CCCCCCCCCCCCCCCC(=O)O` [palmitic, palmitic acid] was “no effect”.
